Columns and labels:
MT4 = test: Antiviral activity in MT-4 human lymphoid cells infected with IIIB isolate by viral spread assay; format: functional; conditions: read-out: CIC95
[1] = Half life to reach the blood concentration was determined in dogs after oral administration (10 mg/kg) as a 0.05 M citric acid solution.; format: ADME, organism-based, Canis lupus familiaris; conditions: dog
[2] = Maximum time taken to reach maximum blood concentration was determined in dogs after oral administration (10 mg/kg) as a 0.05 M citric acid solution.; format: ADME, organism-based, Canis lupus familiaris; conditions: dog
[3] = Area under curve was determined in dogs after oral administration (10 mg/kg) as a 0.05 M citric acid solution.; format: ADME, organism-based, Canis lupus familiaris; conditions: dog, in vivo
[4] = Maximum plasma concentration in dogs after oral administration (10 mg/kg) as a 0.05 M citric acid solution.; format: ADME, organism-based, Canis lupus familiaris; set-up: dose 10 mg/kg, route oral; conditions: dog
[5] = biological target: Human immunodeficiency virus type 1 protease (Human immunodeficiency virus 1, UniProt Q72874); test: In vitro inhibitory activity against HIV-1 protease enzyme.
[6] = Maximum plasma concentration in dogs after oral administration (8 mg/kg) as a 0.05 M citric acid solution.; format: ADME, organism-based, Canis lupus familiaris; set-up: dose 8 mg/kg, route oral; conditions: dog
[7] = Maximum time taken to reach maximum blood concentration was determined in dogs after oral administration (8 mg/kg) as a 0.05 M citric acid solution.; format: ADME, organism-based, Canis lupus familiaris; conditions: dog
[8] = Area under curve was determined in dogs after oral administration (8 mg/kg) as a 0.05 M citric acid solution.; format: ADME, organism-based, Canis lupus familiaris; conditions: dog, in vivo
[9] = Half life to reach the blood concentration was determined in dogs after oral administration (8 mg/kg) as a 0.05 M citric acid solution.; format: ADME, organism-based, Canis lupus familiaris; conditions: dog

| SMILES | half-life [1] [min] | Tmax [2] [min] | AUC [3] [µM·h] | Cmax [4] [µM] | Cmax [6] [µM] | Tmax [7] [min] | AUC [8] [µM·h] | half-life [9] [min] | IC95 (MT4) [nM] | IC50 [5] [nM] |
| --- | --- | --- | --- | --- | --- | --- | --- | --- | --- | --- |
| CC(C)c1cc(CN2CCN(C[C@@H](O)[C@H](Cc3ccccc3)NC(=O)O[C@@H]3CCS(=O)(=O)[C@@H]3C(C)C)[C@H](C(=O)NC(C)(C)C)C2)cc(C(C)C)n1 | – | – | – | – | – | – | – | – | 50 | – |
| CCC(C)c1cc(CN2CCN(C[C@@H](O)[C@H](Cc3ccccc3)NC(=O)O[C@@H]3CCS(=O)(=O)[C@@H]3C(C)C)[C@H](C(=O)NC(C)(C)C)C2)ccn1 (stereo not given in full) | – | – | – | – | – | – | – | – | 25 | 1.2 |
| CC(C)c1cc(CN2CCN(C[C@@H](O)[C@H](Cc3ccccc3)NC(=O)O[C@@H]3CCS(=O)(=O)[C@@H]3C(C)C)[C@H](C(=O)NC(C)(C)C)C2)ccn1 | – | – | – | – | – | – | – | – | 67 | – |
| CC(C)[C@@H]1[C@H](OC(=O)N[C@@H](Cc2ccccc2)[C@H](O)CN2CCN(Cc3ccncc3)C[C@H]2C(=O)NC(C)(C)C)CCS1(=O)=O | 24 | 25 | 4.3 | 6.7 | – | – | – | – | 200 | – |
| CCCCc1cc(CN2CCN(C[C@@H](O)[C@H](Cc3ccccc3)NC(=O)O[C@@H]3CCS(=O)(=O)[C@@H]3C(C)C)[C@H](C(=O)NC(C)(C)C)C2)cc(CCCC)n1 | – | – | – | – | – | – | – | – | 25 | – |

Continued, in another order:

| half-life [1] [min] | Tmax [2] [min] | AUC [3] [µM·h] | Cmax [4] [µM] | Cmax [6] [µM] | Tmax [7] [min] | AUC [8] [µM·h] | half-life [9] [min] | SMILES | IC95 (MT4) [nM] | IC50 [5] [nM] |
| --- | --- | --- | --- | --- | --- | --- | --- | --- | --- | --- |
| 121 | 10 | 7.4 | 8.6 | – | – | – | – | Cc1cc(CN2CCN(C[C@@H](O)[C@H](Cc3ccccc3)NC(=O)O[C@@H]3CCS(=O)(=O)[C@@H]3C(C)C)[C@H](C(=O)NC(C)(C)C)C2)ccn1 | 75 | – |
| 91 | 20 | 5.4 | 4.1 | – | – | – | – | CCc1cc(CN2CCN(C[C@@H](O)[C@H](Cc3ccccc3)NC(=O)O[C@@H]3CCS(=O)(=O)[C@@H]3C(C)C)[C@H](C(=O)NC(C)(C)C)C2)ccn1 | 81 | – |
| – | – | – | – | 3.6 | 40 | 4.5 | 28 | Cc1cc(CN2CCN(C[C@@H](O)[C@H](Cc3ccccc3)NC(=O)O[C@@H]3CCS(=O)(=O)[C@@H]3C(C)C)[C@H](C(=O)NC(C)(C)C)C2)cc(C)n1 | 50 | – |
| 36 | 25 | 2.9 | 3 | – | – | – | – | CCc1cc(CN2CCN(C[C@@H](O)[C@H](Cc3ccccc3)NC(=O)O[C@@H]3CCS(=O)(=O)[C@@H]3C(C)C)[C@H](C(=O)NC(C)(C)C)C2)cc(CC)n1 | 42 | – |
| – | – | – | – | 2.3 | 25 | 1.5 | 21 | CCCc1cc(CN2CCN(C[C@@H](O)[C@H](Cc3ccccc3)NC(=O)O[C@@H]3CCS(=O)(=O)[C@@H]3C(C)C)[C@H](C(=O)NC(C)(C)C)C2)ccn1 | 12 | – |
